Data taken from the supplement of paper PMC11451515.

Experiments:
Settings in all cases: 48 h
SEM cells [1] = test: cell viability relative to DMSO control; higher = less cytotoxic
Summary of the method: (§1)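 In 1536-well plates, 5 μl of leukemia cells were seeded per well: 500 cells/well for NOMO1 or SEM and 1000 cells/well for P12-Ichikawa. Each line had first been adapted for at least four passages in each medium. Library compounds in DMSO were pin-dosed at 11 threefold concentrations between 47 μM and 0.79 nM, and CellTiter-Glo One luminescence was read after 48 h at 37°C. Viability is a per-plate percentage relative to DMSO wells, with cell-free wells as background.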

P12-Ichikawa [2] = test: as above
Summary of the method: as §1

NOMO1 [3] = test: as above
Summary of the method: as §1

SEM cells [4] = test: AUC of viability dose-response curve (% viability x log10 dose units); higher = less sensitive
Summary of the method: (§2)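 Over 48 h at 37°C, leukemia cells in 1536-well plates (500 or 1000 cells/well), adapted to each medium, received library compounds in DMSO at 11 threefold doses from 47 μM to 0.79 nM. CellTiter-Glo One luminescence, normalised per plate to DMSO and cell-free wells, was fitted by a four-parameter log-logistic function of log10 dose. The area under the curve was then integrated by trapezoidal rule, after scaling curves above full viability and removing those that failed quality control.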

P12-Ichikawa [5] = test: as above
Summary of the method: as §2

NOMO1 [6] = test: as above
Summary of the method: as §2

COc1cc2c(NC3CCN(C(C)C)CC3)nc(C3CCCCC3)nc2cc1OCCCN1CCCC1
cell viability [%]
Settings	NOMO1 [3]	P12-Ichikawa [2]	SEM cells [1]
HPLM + 10% dialyzed FBS, 0.000781 µM	120	107	111
HPLM + 10% dialyzed FBS, 0.00234 µM	133	110	125
HPLM + 10% dialyzed FBS, 0.00702 µM	123	115	109
HPLM + 10% dialyzed FBS, 0.0211 µM	118	121	122
HPLM + 10% dialyzed FBS, 0.0632 µM	142	121	122
HPLM + 10% dialyzed FBS, 0.19 µM	128	121	125
HPLM + 10% dialyzed FBS, 0.569 µM	118	120	130
HPLM + 10% dialyzed FBS, 1.71 µM	130	123	81.9
HPLM + 10% dialyzed FBS, 5.12 µM	111	119	108
HPLM + 10% dialyzed FBS, 15.4 µM	102	105	61.7
HPLM + 10% dialyzed FBS, 46.1 µM	9.5	4.7	6.83
RPMI 5 mM glucose + 10% FBS, 0.000781 µM	107	112	109
RPMI 5 mM glucose + 10% FBS, 0.00234 µM	117	127	113
RPMI 5 mM glucose + 10% FBS, 0.00702 µM	114	113	122
RPMI 5 mM glucose + 10% FBS, 0.0211 µM	129	127	116
RPMI 5 mM glucose + 10% FBS, 0.0632 µM	117	121	112
RPMI 5 mM glucose + 10% FBS, 0.19 µM	130	116	122
RPMI 5 mM glucose + 10% FBS, 0.569 µM	134	120	109
RPMI 5 mM glucose + 10% FBS, 1.71 µM	114	131	77.3
RPMI 5 mM glucose + 10% FBS, 5.12 µM	118	112	113
RPMI 5 mM glucose + 10% FBS, 15.4 µM	115	96.9	76.6
RPMI 5 mM glucose + 10% FBS, 46.1 µM	18.2	3.81	10.2
RPMI 5 mM glucose + 10% dialyzed FBS, 0.000781 µM	–	106	90.1
RPMI 5 mM glucose + 10% dialyzed FBS, 0.00234 µM	–	117	114
RPMI 5 mM glucose + 10% dialyzed FBS, 0.00702 µM	–	114	111
RPMI 5 mM glucose + 10% dialyzed FBS, 0.0211 µM	–	121	119
RPMI 5 mM glucose + 10% dialyzed FBS, 0.0632 µM	–	123	116
RPMI 5 mM glucose + 10% dialyzed FBS, 0.19 µM	–	129	113
RPMI 5 mM glucose + 10% dialyzed FBS, 0.569 µM	–	122	112
RPMI 5 mM glucose + 10% dialyzed FBS, 1.71 µM	–	133	76.8
RPMI 5 mM glucose + 10% dialyzed FBS, 5.12 µM	–	110	115
RPMI 5 mM glucose + 10% dialyzed FBS, 15.4 µM	–	91.5	93.5
RPMI 5 mM glucose + 10% dialyzed FBS, 46.1 µM	–	4.78	32.9

AUC of viability dose-response curve
Settings	NOMO1 [6]	P12-Ichikawa [5]	SEM cells [4]
HPLM + 10% dialyzed FBS	444	449	419
RPMI 5 mM glucose + 10% FBS	455	445	440
RPMI 5 mM glucose + 10% dialyzed FBS	438	441	454

Clc1ccc(COC(Cn2ccnc2)c2ccc(Cl)cc2Cl)cc1 (stereo not given)
cell viability [%]
Settings	NOMO1 [3]	P12-Ichikawa [2]	SEM cells [1]
HPLM + 10% dialyzed FBS, 0.000781 µM	118	110	72.9
HPLM + 10% dialyzed FBS, 0.00234 µM	119	109	82.3
HPLM + 10% dialyzed FBS, 0.00702 µM	105	115	89.9
HPLM + 10% dialyzed FBS, 0.0211 µM	115	117	97.2
HPLM + 10% dialyzed FBS, 0.0632 µM	111	124	83.6
HPLM + 10% dialyzed FBS, 0.19 µM	104	121	84.7
HPLM + 10% dialyzed FBS, 0.569 µM	111	120	80.8
HPLM + 10% dialyzed FBS, 1.71 µM	127	117	88.9
HPLM + 10% dialyzed FBS, 5.12 µM	132	114	92.5
HPLM + 10% dialyzed FBS, 15.4 µM	118	116	87.9
HPLM + 10% dialyzed FBS, 46.1 µM	93.2	106	80.5
RPMI 5 mM glucose + 10% FBS, 0.000781 µM	107	116	116
RPMI 5 mM glucose + 10% FBS, 0.00234 µM	104	117	110
RPMI 5 mM glucose + 10% FBS, 0.00702 µM	110	114	121
RPMI 5 mM glucose + 10% FBS, 0.0211 µM	123	126	114
RPMI 5 mM glucose + 10% FBS, 0.0632 µM	111	129	119
RPMI 5 mM glucose + 10% FBS, 0.19 µM	109	123	102
RPMI 5 mM glucose + 10% FBS, 0.569 µM	121	121	119
RPMI 5 mM glucose + 10% FBS, 1.71 µM	117	130	107
RPMI 5 mM glucose + 10% FBS, 5.12 µM	119	126	113
RPMI 5 mM glucose + 10% FBS, 15.4 µM	110	104	107
RPMI 5 mM glucose + 10% FBS, 46.1 µM	102	91.3	82
RPMI 5 mM glucose + 10% dialyzed FBS, 0.000781 µM	114	108	76.8
RPMI 5 mM glucose + 10% dialyzed FBS, 0.00234 µM	112	114	78.8
RPMI 5 mM glucose + 10% dialyzed FBS, 0.00702 µM	103	123	113
RPMI 5 mM glucose + 10% dialyzed FBS, 0.0211 µM	121	113	85
RPMI 5 mM glucose + 10% dialyzed FBS, 0.0632 µM	115	124	92.2
RPMI 5 mM glucose + 10% dialyzed FBS, 0.19 µM	125	124	88.7
RPMI 5 mM glucose + 10% dialyzed FBS, 0.569 µM	121	120	111
RPMI 5 mM glucose + 10% dialyzed FBS, 1.71 µM	120	107	94.2
RPMI 5 mM glucose + 10% dialyzed FBS, 5.12 µM	114	103	101
RPMI 5 mM glucose + 10% dialyzed FBS, 15.4 µM	121	96.8	79.7
RPMI 5 mM glucose + 10% dialyzed FBS, 46.1 µM	83.6	85.7	74.5

AUC of viability dose-response curve
Settings	NOMO1 [6]	P12-Ichikawa [5]	SEM cells [4]
HPLM + 10% dialyzed FBS	473	477	408
RPMI 5 mM glucose + 10% FBS	473	463	468
RPMI 5 mM glucose + 10% dialyzed FBS	470	452	431
